Laboratory results published in patent US12180226B2, “Spirotricycle RIPK1 inhibitors and methods of uses thereof” (Merck Sharp & Dohme LLC, priority 2021, dated 2024).
Counter-ions that a name gives are not always drawn.

Biological target: RIPK1 (recombinant GST-RIPK1 kinase domain, residues 1-327) (Homo sapiens (Human), UniProt Q13546)
Assay: RIPK1-ADP-Glo Enzymatic Assay
Type: biochemical
Conditions: ADP-Glo; 25 nM GST-RIPK1, 300 μM ATP; assay lower limit ~25 nM; read-out: RIPK1 V0 Ec50
Procedure, shortened: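 Enzyme from baculovirus-infected Sf21 cells, 25 nM final, was pre-incubated 30 min at ambient temperature with compound (ten-point, 1:3 dilution from 100000 nM, 1% DMSO), then reacted 150 min with 300 μM ATP and 3 μM dephosphorylated MBP. ADP was read by luminescence; EC50 from four-parameter fit.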

Chain of RIPK1 (recombinant GST-RIPK1 kinase domain, residues 1-327) (Q13546 1-327): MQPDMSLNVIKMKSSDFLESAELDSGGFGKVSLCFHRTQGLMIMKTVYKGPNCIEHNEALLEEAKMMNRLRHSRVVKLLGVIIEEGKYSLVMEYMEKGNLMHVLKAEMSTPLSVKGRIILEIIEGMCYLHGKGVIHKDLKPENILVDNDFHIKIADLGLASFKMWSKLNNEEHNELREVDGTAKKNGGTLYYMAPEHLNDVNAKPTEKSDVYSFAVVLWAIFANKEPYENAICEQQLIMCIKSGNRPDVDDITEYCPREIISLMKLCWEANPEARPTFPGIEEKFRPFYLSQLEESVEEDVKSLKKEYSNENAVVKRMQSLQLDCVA

O=C1N2[C@@H](CC[C@H]2c2ccccc2)OC12CCN(c1ccnc3c(F)cnn13)CC2F (single isomer, unassigned) [Example 4.92, (3[S or R],4[R or S], 5′S,7a′R)-3-fluoro-1-(3-fluoropyrazolo[1,5-a]pyrimidin-7-yl)-5′-phenyltetrahydro-3′H-spiro[piperidine-4,2′-pyrrolo[2,1-b]oxazol]-3′-one, TFA salt]
EC50: < 25 nM

O=C1N2[C@@H](CC[C@H]2c2ccccc2F)OC12CN(c1cccc3ncnn13)C2 [Example 13.20, (5′S,7a′R)-1-([1,2,4]triazolo[1,5-a]pyridin-5-yl)-5′-(2-fluorophenyl)tetrahydro-3′H-spiro[azetidine-3,2′-pyrrolo[2,1-b]oxazol]-3′-one, TFA salt]
EC50: 24.9 nM

N#Cc1ccc(N2CCC3(CC2)O[C@@H]2CC[C@@H](c4ccccc4F)N2C3=O)n2nccc12 [Example 4.156, 7-[(5′S,7a′R)-5′-(2-fluorophenyl)-3′-oxotetrahydro-1H,3′H-spiro[piperidine-4,2′-pyrrolo[2,1-b] [1,3]oxazol]-1-yl]pyrazolo[1,5-a] pyridine-4-carbonitrile]
EC50: < 25 nM

O=C(c1ccccc1)N1CCC2(CC1)SC1CC[C@@H](c3cc(F)cc(F)c3)N1C2=O (stereo partly drawn) [Example 1.22, (5′S)-1-benzoyl-5′-(3,5-difluorophenyl)tetrahydro-3′H-spiro[piperidine-4,2′-pyrrolo[2,1-b]thiazol]-3′-one]
EC50: < 25 nM

COCOc1cc(-c2ccc(N3CCC4(CC3)O[C@@H]3CC[C@@H](c5ccccc5)N3C4=O)nc2)on1 [Example 4.164, (5′S,7a′R)-1-{5-[3-(methoxymethoxy)-1,2-oxazol-5-yl]pyridin-2-yl}-5′-phenyltetrahydro-3′H-spiro[piperidine-4,2′-pyrrolo[2,1-b] [1,3]oxazol]-3′-one]
EC50: 28.8 nM

O=C(c1ccn2ccccc12)N1CCC2(CC1)O[C@@H]1CC[C@@H](c3cc(F)cc(F)c3)N1C2=O [Example 5.68, (5′S,7a′R)-5′-(3,5-difluoro-phenyl)-1-(indolizine-1-carbonyl)tetrahydro-3′H-spiro[piperidine-4,2′-pyrrolo[2,1-b]oxazol]-3′-one]
EC50: < 25 nM

Cc1ccc(F)c(C(=O)N2CCC3(CC2)O[C@@H]2CC[C@@H](c4cc(F)cc(F)c4)N2C3=O)c1 [Example 6.5, (5′S,7a′R)-5′-(3,5-difluorophenyl)-1-(2-fluoro-5-methyl-benzene-1-carbonyl) tetrahydro-3′H-spiro [piperidine-4,2′-pyrrolo[2,1-b][1,3]oxazol]-3′-one]
EC50: < 25 nM

O=C(c1nc(N2CCC3(CC2)O[C@@H]2CC[C@@H](c4cc(F)cc(F)c4)N2C3=O)ncc1F)N1CC(C(F)F)C1 [Example 7.8, (5′S,7a′R)-1-{4-[3-(difluoromethyl)azetidine-1-carbonyl]-5-fluoropyrimidin-2-yl}-5′-(3,5-difluorophenyl)tetrahydro-3′H-spiro[piperidine-4,2′-pyrrolo[2,1-b][1,3]oxazol]-3′-one]
EC50: < 25 nM

Cn1ccc(C(=O)N2CCC3(CC2)O[C@@H]2CC[C@@H](c4cc(F)cc(F)c4)N2C3=O)n1 [Example 5.39, (5′S,7a′R)-5′-(3,5-difluoro-phenyl)-1-(1-methyl-1H-pyrazole-3-carbonyl)tetra-hydro-3′H-spiro[piperi-dine-4,2′-pyrrolo[2,1-b]oxazol]-3′-one]
EC50: 172 nM

N#Cc1cccc(C(=O)N2CCC3(CC2)O[C@@H]2CC[C@@H](c4cccc(F)c4)N2C3=O)c1F [Example 6.122, 2-fluoro-3-[(5′S,7a′R)-5′-(3-fluorophenyl)-3′-oxotetrahydro-1H,3′H-spiro[piperi-dine-4,2′-pyrrolo[2,1-b][1,3]oxazole]-1-carbonyl]benzonitrile]
EC50: 47.5 nM

O=C1N2[C@@H](CC[C@H]2c2ccccc2)OC12CCN(c1ccc(-c3cc(O)no3)cn1)CC2 [Example 4.193, (5′S,7a′R)-1-[5-(3-hydroxy-1,2-oxazol-5-yl)pyridin-2-yl]-5′-phenyltetrahydro-3′H-spiro[piperidine-4,2′-pyrrolo[2,1-b] [1,3]oxazol]-3′-one]
EC50: < 25 nM

O=C1N2[C@@H](CC[C@H]2c2ccccc2)OC12CCN(c1ccc(-c3cscn3)c3ncnn13)CC2 [Example 21.19, (5′S,7a′R)-5′-phenyl-1-[8-(1,3-thiazol-4-yl)[l,2,4]triazolo[1,5-a]pyridin-5-yl]tetrahydro-3′H-spiro[piperidine-4,2′-pyrrolo[2,1-b][1,3]oxazol]-3′-one]
EC50: < 25 nM

O=C1N2[C@@H](CC[C@H]2c2ccccc2)OC12CCN(c1ncc(-c3nccs3)cn1)CC2 [Example 21.12, (5′S,7a′R)-5′-phenyl-1-[5-(1,3-thiazol-2-yl)pyrimidin-2-yl]tetrahydro-3′H-spiro[piperidine-4,2′-pyrrolo[2,1-b][1,3]oxazol]-3′-one]
EC50: 25.2 nM

O=C1N2[C@@H](CC[C@H]2c2ccccc2)OC12CCN(c1ncc(-c3ncco3)cn1)CC2 [Example 21.15, (5′S,7a′R)-1-[5-(1,3-oxazol-2-yl)pyrimidin-2-yl]-5′-phenyltetrahydro-3′H-spiro[piperidine-4,2′-pyrrolo[2,1-b][1,3]oxazol]-3′-one]
EC50: < 25 nM

O=C(c1cc(I)c(I)c(I)c1)N1CCC2(CC1)O[C@@H]1CC[C@@H](c3cc(F)cc(F)c3)N1C2=O [Example 5.65, (5′S,7a′R)-5′-(3,5-difluoro-phenyl)-1-(3,4,5-triiodo-benzoyl)tetrahydro-3′H-spiro[piperidine-4,2′-pyrrolo[2,1-b]oxazol]-3′-one]
EC50: 244 nM

O=C(c1cccnc1)N1CCC2(CC1)O[C@@H]1CC[C@@H](c3cc(F)cc(F)c3)N1C2=O [Example 5.64, (5′S,7a′R)-5′-(3,5-difluoro-phenyl)-1-nicotinoyltetra-hydro-3′H-spiro[piperidine-4,2′-pyrrolo[2,1-b]oxazol]-3′-one]
EC50: 38.8 nM

N#Cc1cc(C(=O)N2CCC3(CC2)O[C@@H]2CC[C@@H](c4ccccc4)N2C3=O)ccc1F [Example 6.138, 2-fluoro-5-[(5′S,7a′R)-3′-oxo-5′-phenyl-tetrahydro-1H,3′H-spiro[piperidine-4,2′-pyrrolo[2,1-b][1,3]-oxazole]-1-carbonyl]-benzonitrile]
EC50: < 25 nM

COc1ccc(F)c(C(=O)N2CCC3(CC2)O[C@@H]2CC[C@@H](c4cccc(F)c4)N2C3=O)c1 [Example 6.131, (5′S,7a′R)-1-(2-fluoro-5-methoxybenzene-1-carbonyl)-5′-(3-fluoro-phenyl)tetrahydro-3′H-spiro[piperidine-4,2′-pyrrolo[2,1-b] [1,3]oxazol]-3′-one]
EC50: < 25 nM

COc1ccc(N2CCC3(CC2)O[C@@H]2CC[C@@H](c4cc(F)cc(F)c4)N2C3=O)n2ncnc12 [Example 19.3, (5′S,7a′R)-5′-(3,5-difluorophenyl)-1-(8-methoxy-[1,2,4]triazolo[1,5-a]pyridin-5-yl)tetrahydro-3′H-spiro[piperidine-4,2′ pyrrolo[2,1-b]oxazol]-3′-one, TFA salt]
EC50: < 25 nM

O=C1N2[C@@H](CC[C@H]2c2ccccc2)OC12CCN(c1ncccc1Cl)CC2 [Example 4.256, (5′S,7a′R)-1-(3-chloropyridin-2-yl)-5′-phenyltetrahydro-3′H-spiro[piperidine-4,2′-pyrrolo[2,1-b] [1,3]oxazol]-3′-one]
EC50: 25 nM

CC(C)Oc1cccc(C(=O)N2CCC3(CC2)O[C@@H]2CC[C@@H](c4cc(F)cc(F)c4)N2C3=O)n1 [Example 6.90, (5′S,7a′R)-5′-(3,5-difluorophenyl)-1-{6-[(propan-2-yl)oxy]-pyridine-2-carbonyl} tetrahydro-3′H-spiro [piperidine-4,2′-pyrrolo[2,1-b][1,3]-oxazol]-3′-one]
EC50: 36.1 nM

Cc1ccnc(C(=O)N2CCC3(CC2)O[C@@H]2CC[C@@H](c4cc(F)cc(F)c4)N2C3=O)n1 [Example 6.88, (5′S,7a′R)-5′-(3,5-difluorophenyl)-1-(4-methylpyrimidine-2-carbonyl)tetrahydro-3′H-spiro[piperidine-4,2′-pyrrolo[2,1-b] [1,3]oxazol]-3′-one]
EC50: 136 nM

COc1ccc(N2CCC3(CC2)O[C@@H]2CC[C@@H](c4ccccc4)N2C3=O)n2ncnc12 [Example 19.8, (5′S,7a′R)-1-(8-methoxy[1,2,4]triazolo [1,5-a]pyridin-5-yl)-5′-phenyltetrahydro-3′H-spiro[piperidine-4,2′-pyrrolo[2,1-b][1,3]oxazol]-3′-one]
EC50: 394 nM

O=C(c1cnc2ccccc2n1)N1CCC2(CC1)O[C@@H]1CC[C@@H](c3cc(F)cc(F)c3)N1C2=O [Example 6.73, (5′S,7a′R)-5′-(3,5-difluorophenyl)-1-(quinoxaline-2-carbon-yl)tetrahydro-3′H-spiro[piperidine-4,2′-pyrrolo[2,1-b][1,3]-oxazol]-3′-one]
EC50: 48.6 nM

O=C(c1ccccc1)N1CCC2(CC1)O[C@@H]1CC[C@@H](c3ccccc3)N1C2=O [Example 1.3, (5′S,7a′R)-1-(benzenecarbonyl)-5′-phenyltetrahydro-3′H-spiro[piperidine-4,2′-pyrrolo[2,1-b] [1,3]oxazol]-3′-one]
EC50: < 25 nM

N#Cc1ccc(N2CC3(C2)O[C@@H]2CC[C@@H](c4ccccc4)N2C3=O)c2ccnn12 [Example 13.21, 4-((5′S,7a′R)-3′-oxo-5′-phenyltetrahydro-3′H-spiro[azetidine-3,2′-pyrrolo[2,1-b]oxazol]-1-yl)pyrazolo[1,5-a]pyridine-7-carbonitrile, TFA salt]
EC50: 25.3 nM

N#Cc1ccnc(N2CCC3(CC2)O[C@@H]2CC[C@@H](c4cc(F)cc(F)c4)N2C3=O)c1 [Example 4.8, 2-[(5′S,7a′R)-5′-(3,5-difluorophenyl)-3′-oxotetrahydro-1H,3′H-spiro[piperidine-4,2′-pyrrolo[2,1-b] [1,3]oxazol]-1-yl]pyridine-4-carbonitrile]
EC50: < 25 nM
